Tested on: class I antigen presentation gene expression in MCC cell lines
Assay: RNA-seq / DESeq2 differential expression of MCC cell lines at baseline and after IFN-γ stimulation
Format: cell-based, human
Details: 11 MCC cell lines, baseline vs IFNγ; negative LFC = upregulation in IFNγ-treated
Protocol: FIG. 2A comprises RNA-seq heatmaps of class I antigen presentation gene expression in MCC lines and controls.
FIG. 2B is a volcano plot of differentially expressed genes (genes below FDR cutoff 0.01 are shown in yellow) between baseline and IFN-γ-treated MCC cell lines. Differential expression analysis was performed using DESeq2, and negative LFC indicates increased expression in +IFN-γ samples. IFN genes are highlighted in red.
RNA samples were first assessed for quality using the Agilent Bioanalyzer (DV200 metric). One hundred ng of RNA were used as the input for first strand cDNA synthesis using Superscript III reverse transcriptase and Illumina's TruSeq RNA Access Sample Prep Kit. Synthesis of the second strand of cDNA was followed by indexed adapter ligation with UMI (unique molecular index) adaptors. Subsequent PCR amplification enriched for adapted fragments. Amplified libraries were quantified, normalized, pooled, and hybridized with exome targeting oligos. Following hybridization, bead clean-up, elution and PCR was performed to prepare library pools for sequencing on Illumina flowcell lanes. Transcriptomes were sequenced to a coverage of at least 50 million reads in pairs.
Raw fastq files for fibroblast and keratinocyte control lines were downloaded from SRA using R Bioconductor package SRAdb (Mayakonda et al. (2018) supra; Zhu et al. (2013) BMC Bioinformatics 14 (1): 1-4) using accession codes SRP126422 (4 replicates from control samples ‘NN’) and SRP131347 (6 replicates with condition: control and genotype: control). These fastq files, along with those for the mkl1 and waga cell lines, were aligned using STAR version 2.7.3a (Dobin et al. (2013) Bioinformatics 29 (1): 15-21), using index genome reference file downloaded from ftp.ebi.ac.uk/pub/databases/gencode/Gencode_human/release_19/GRCh37.p13.genome.fa.gz, transcript annotation file downloaded from data.broadinstitute.org/snowman/hg19/star/gencode.v19.annotation.gtf, and with the following options: --twopassMode Basic, --outSAMstrandField intronMotif, --alignIntronMax 1000000, --alignMatesGapMax 1000000, --sjdbScore 2, --outSAMtype BAM Unsorted, --outSAMattributes NH HI NM MD AS XS, --outFilterType BySJout, --outSAMunmapped Within, --genomeLoad NoSharedMemory, --outFilterScoreMinOverLread 0, --outFilterMatchNminOverLread 0, --outFilterMismatchNmax 999, and outFilterMultimapNmax 20. Duplicates were marked with picard MarkDuplicates version 2.22.0-SNAPSHOT.
RNA-sequencing bam files for MCC tumor and cell line samples were downloaded from the Broad Genomics Firecloud/Terra platform using the Google Cloud Storage command line tool gsutil version 4.5 (github.com/GoogleCloudPlatform/gsutil/).
Gene counts were obtained from bam files using featureCounts version 2.0.0 (doi.org/10.1093/bioinformatics/btt656). Very lowly expressed genes with average count across samples less than 1 were excluded from analysis. Between-sample distance metrics were computed using the Euclidean distance on the vectors of variance-stabilized counts obtained from the vst function in the DESeq2 R Bioconductor package ([…]; Love et al. (2014) Genome Biology 15 (12): 550).
Differential expression analysis was carried out between (1) viral positive and viral negative samples (adjusting for cell line or tumor as a covariate), (2) cell line and tumor samples (adjusting for viral status as a covariate), and (3) IFNγ plus and minus samples (adjusting for viral status as a covariate) using the negative binomial GLM Wald test of DESeq2, where significance was assessed using the p-values adjusted for multiple comparisons under default settings. To account for potential global gene expression differences among sample groups, RUVg (Risso et al. (2014) […] 32 (9): 896-902) was used to estimate latent factors of unwanted variation from the list of housekeeping genes downloaded from www.tau.ac.il/˜elieis/HKG/HK_genes.txt. […]

## IFN-y: type II interferon, recombinant human, used to treat MCC cells
  log2FoldChange FBXO6 (ENSG00000116663.6): −2.854
  log2FoldChange FREM3 (ENSG00000183090.5): −4.873
  log2FoldChange FZD5 (ENSG00000163251.3): −1.098
  log2FoldChange GBP1 (ENSG00000117228.9): −10.1
  log2FoldChange GBP1P1 (ENSG00000225492.2): −7.927
  log2FoldChange GBP2 (ENSG00000162645.8): −6.235
  log2FoldChange GBP3 (ENSG00000117226.7): −9.215
  log2FoldChange GBP4 (ENSG00000162654.8): −10.33
  log2FoldChange GBP5 (ENSG00000154451.10): −5.854
  log2FoldChange HCP5 (ENSG00000206337.6): −5.131
  log2FoldChange HELB (ENSG00000127311.5): −1.463
  log2FoldChange HERC5 (ENSG00000138646.4): −2.156
  log2FoldChange HERC6 (ENSG00000138642.10): −9.027
  log2FoldChange HLA-A (ENSG00000206503.7): −3.702
  log2FoldChange HLA-B (ENSG00000234745.5): −4.921
  log2FoldChange HLA-C (ENSG00000204525.10): −4.155
  log2FoldChange HLA-DMA (ENSG00000204257.10): −3.237
  log2FoldChange HLA-DMB (ENSG00000242574.4): −5.727
  log2FoldChange HLA-DOA (ENSG00000204252.8): −7.789
  log2FoldChange HLA-DOB (ENSG00000241106.2): −3.598
  log2FoldChange HLA-DPA1 (ENSG00000231389.3): −9.303
  log2FoldChange HLA-DPB1 (ENSG00000223865.6): −7.613
  log2FoldChange HLA-DQB1 (ENSG00000179344.12): −7.335
  log2FoldChange HLA-DRA (ENSG00000204287.9): −10.07
  log2FoldChange HLA-DRB1 (ENSG00000196126.6): −7.278
  log2FoldChange HLA-DRB5 (ENSG00000198502.5): −5.98
  log2FoldChange HLA-E (ENSG00000204592.5): −2.608
  log2FoldChange HLA-F (ENSG00000204642.9): −7.289
  log2FoldChange HLA-G (ENSG00000204632.7): −3.367
  log2FoldChange HLA-H (ENSG00000206341.6): −3.883
  log2FoldChange HLA-J (ENSG00000204622.6): −4.551
  log2FoldChange HLA-L (ENSG00000243753.1): −2.336
  log2FoldChange IDO1 (ENSG00000131203.8): −5.825
  log2FoldChange IFI6 (ENSG00000126709.10): −2.328
  log2FoldChange IFI16 (ENSG00000163565.14): −5.946
  log2FoldChange IFI44 (ENSG00000137965.6): −8.954
  log2FoldChange IFI44L (ENSG00000137959.11): −7.733
  log2FoldChange IFIH1 (ENSG00000115267.5): −4.034
  log2FoldChange IFIT1 (ENSG00000185745.8): −3.465
  log2FoldChange IFIT2 (ENSG00000119922.7): −6.152
  log2FoldChange IFIT3 (ENSG00000119917.9): −9.398
  log2FoldChange IFITM1 (ENSG00000185885.11): −8.763
  log2FoldChange IFITM3 (ENSG00000142089.11): −7.436
  log2FoldChange IFNB1 (ENSG00000171855.5): −3.53
  log2FoldChange IL7 (ENSG00000104432.8): −3.753
  log2FoldChange IL15 (ENSG00000164136.12): −6.781
  log2FoldChange IL15RA (ENSG00000134470.15): −6.483
  log2FoldChange IL17RC (ENSG00000163702.14): −1.188
  log2FoldChange IL18BP (ENSG00000137496.13): −1.497
  log2FoldChange INPPI (ENSG00000151689.8): −1.931
  log2FoldChange IRF1 (ENSG00000125347.9): −5.385
  log2FoldChange IRF2 (ENSG00000168310.6): −1.588
  log2FoldChange ISG15 (ENSG00000187608.5): −3.824
  log2FoldChange ITK (ENSG00000113263.8): −4.656
  log2FoldChange KCNIP4 (ENSG00000185774.10): −2.647
  log2FoldChange KDR (ENSG00000128052.8): −7.174
  log2FoldChange KIAA0040 (ENSG00000235750.5): −3.216
  log2FoldChange LAP3 (ENSG00000002549.8): −1.871
  log2FoldChange LGALS12 (ENSG00000133317.10): −4.156
  log2FoldChange LIPT1 (ENSG00000144182.12): −0.5688
  log2FoldChange LOC154761 (ENSG00000253882.2): −3.161
  log2FoldChange LY75 (ENSG00000054219.9): −2.87
  log2FoldChange MAJIN (ENSG00000168070.7): −3.183
  log2FoldChange MOB3C (ENSG00000142961.10): −1.494
  log2FoldChange MOV10 (ENSG00000155363.14): −1.652
  log2FoldChange MTMR9LP (ENSG00000220785.3): −0.5387
  log2FoldChange NOD1 (ENSG00000106100.6): −1.317
  log2FoldChange NRIR (ENSG00000225964.1): −3.724
  log2FoldChange NUB1 (ENSG00000013374.11): −1.521
  log2FoldChange NUGGC (ENSG00000189233.7): −3.265
  log2FoldChange OPTN (ENSG00000123240.12): −1.482
  log2FoldChange PARP3 (ENSG00000041880.10): −1.726
  log2FoldChange PARP9 (ENSG00000138496.12): −5.112
  log2FoldChange PARP10 (ENSG00000178685.9): −3.43
  log2FoldChange PARP12 (ENSG00000059378.8): −2.758
  log2FoldChange PARP14 (ENSG00000173193.9): −9.512
  log2FoldChange PARP15 (ENSG00000173200.8): −3.778
  log2FoldChange PLA2G16 (ENSG00000176485.6): −2.531

Source: patent US20230203485A1, “METHODS FOR MODULATING MHC-I EXPRESSION AND IMMUNOTHERAPY USES THEREOF” (Dana-Farber Cancer Institute, Inc., priority 2020, published 2023)
